From US10208081B2, “Bile acid derivatives as FXR/TGR5 agonists and methods of use thereof” (Enanta Pharmaceuticals, Inc., priority 2014, dated 2019) come the findings set out here.

The assay deals with human FXR (NR1H4) (Homo sapiens (Human), UniProt Q96RI1). Put plainly: Human FXR (NR1H4) Assay (Gal4 promoter driven luciferase reporter, Indigo Bioscience kit IB00601). The assay is classed as cell-based. As to conditions: for Efficacy (%): efficacy normalized to CDCA set as 100%; for EC50: potency ranges. Put shortly:
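CHO reporter cells expressing human FXR with Gal4-driven, FXR-responsive luciferase treated with compound doses (0.2% DMSO) for 22 hours at 37° C. Luciferase luminescence then measured as surrogate of FXR activation for potency and efficacy.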
For orientation: A reporter such as luciferase makes a cellular process visible.

Sequence of human FXR (NR1H4) (Q96RI1 whole entry, the tested form may be a part): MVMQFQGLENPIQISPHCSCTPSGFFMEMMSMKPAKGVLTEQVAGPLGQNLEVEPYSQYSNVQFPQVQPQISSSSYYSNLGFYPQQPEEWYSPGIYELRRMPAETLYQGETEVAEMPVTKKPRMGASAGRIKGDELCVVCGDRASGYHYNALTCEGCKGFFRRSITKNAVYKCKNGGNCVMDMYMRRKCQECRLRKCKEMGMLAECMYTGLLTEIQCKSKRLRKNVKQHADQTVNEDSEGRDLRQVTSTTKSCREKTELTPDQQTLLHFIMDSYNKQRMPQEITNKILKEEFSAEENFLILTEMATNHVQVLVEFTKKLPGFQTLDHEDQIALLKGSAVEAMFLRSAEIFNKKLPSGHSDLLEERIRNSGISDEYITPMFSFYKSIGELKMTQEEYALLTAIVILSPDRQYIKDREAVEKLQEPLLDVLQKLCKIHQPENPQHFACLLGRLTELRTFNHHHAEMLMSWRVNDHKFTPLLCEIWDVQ

On to `CC[C@H]1[C@@H](O)[C@@H]2[C@H](CC[C@]3(C)[C@@H]([C@H](C)CNC(=O)NS(=O)(=O)c4cccc(C(C)(C)C)c4)CC[C@@H]23)[C@@]2(C)CC[C@@H](O)C[C@@H]12` [Example 115], for which the “Efficacy (%)” value was 291% and the EC50 fell in the range of 0.1 to 1 µM.

As for `CC[C@H]1[C@@H](O)[C@@H]2[C@H](CC[C@]3(C)[C@@H]([C@H](C)CNS(=O)(=O)CCC(=O)O)CC[C@@H]23)[C@@]2(C)CC[C@@H](O)C[C@@H]12` [Example 140], the “Efficacy (%)” value is reported as 1%. As for `CC[C@H]1[C@@H](O)[C@@H]2[C@H](CC[C@]3(C)[C@@H]([C@H](C)CCNC(=O)NS(=O)(=O)N4[C@H](C)CCC[C@@H]4C)CC[C@@H]23)[C@@]2(C)CC[C@@H](O)C[C@@H]12` [Example 96], the “Efficacy (%)” value came to 387% and the EC50 is < 0.1 µM. As for `CC[C@H]1[C@@H](O)[C@@H]2[C@H](CC[C@]3(C)[C@@H]([C@H](C)CCNS(=O)(=O)c4cccc(N5CCCCC5)c4)CC[C@@H]23)[C@@]2(C)CC[C@@H](O)C[C@@H]12` [Example 133], the “Efficacy (%)” value worked out at 80% and the EC50 is > 10 µM. Taken in the same sequence, the figures for `CC[C@H]1[C@@H](O)[C@@H]2[C@H](CC[C@]3(C)[C@@H]([C@H](C)CCNC(=O)NS(=O)(=O)c4ccc(C)c(C)c4)CC[C@@H]23)[C@@]2(C)CC[C@@H](O)C[C@@H]12` [Example 17] were 357% and < 0.1 µM. Taken in the same sequence, the figures for `CC[C@H]1[C@@H](O)[C@@H]2[C@H](CC[C@]3(C)[C@@H]([C@H](C)CCNS(=O)(=O)O)CC[C@@H]23)[C@@]2(C)CC[C@@H](O)C[C@@H]12` [Example 131] were 8% and 1 to 10 µM. With `CC[C@H]1[C@@H](O)[C@@H]2[C@H](CC[C@]3(C)[C@@H]([C@H](C)CCNC(=O)NS(=O)(=O)N4C[C@@H](C)O[C@@H](C)C4)CC[C@@H]23)[C@@]2(C)CC[C@@H](O)C[C@@H]12` [Example 75], the “Efficacy (%)” value came out at 323% and the EC50 was < 0.1 µM. `CC[C@H]1[C@@H](O)[C@@H]2[C@H](CC[C@]3(C)[C@@H]([C@H](C)CCNC(=O)NS(=O)(=O)c4cccc(N(C)C)c4)CC[C@@H]23)[C@@]2(C)CC[C@@H](O)C[C@@H]12` [Example 112]: the “Efficacy (%)” value amounted to 287% and the half-maximal effective concentration (EC50) is < 0.1 µM. Turning to `CC[C@H]1[C@@H](O)[C@@H]2[C@H](CC[C@]3(C)[C@@H]([C@H](C)CCNS(=O)(=O)CC(=O)O)CC[C@@H]23)[C@@]2(C)CC[C@@H](O)C[C@@H]12` [Example 132], the “Efficacy (%)” value was found to be 7% and the EC50 fell in the range of 1 to 10 µM. With `CC[C@H]1[C@@H](O)[C@@H]2[C@H](CC[C@]3(C)[C@@H]([C@H](C)CCNC(=O)NS(=O)(=O)NC)CC[C@@H]23)[C@@]2(C)CC[C@@H](OC(=O)C(F)(F)F)C[C@@H]12` [Example 126], the “Efficacy (%)” value amounted to 238% and the half-maximal effective concentration (EC50) lay in the range of 1 to 10 µM. Consider `CC[C@H]1[C@@H](O)[C@@H]2[C@H](CC[C@]3(C)[C@@H]([C@H](C)CCNC(=O)NS(=O)(=O)c4nccs4)CC[C@@H]23)[C@@]2(C)CC[C@@H](O)C[C@@H]12` [Example 100], for which the “Efficacy (%)” value is listed as 364% and the concentration for a half-maximal effect (EC50) was in the range of 1 to 10 µM. `CC[C@H]1[C@@H](O)[C@@H]2[C@H](CC[C@]3(C)[C@@H]([C@H](C)CCNC(=O)NS(=O)(=O)c4cccs4)CC[C@@H]23)[C@@]2(C)CC[C@@H](O)C[C@@H]12` [Example 21]: the “Efficacy (%)” value was found to be 402% and the EC50 was in the range of 0.1 to 1 µM. In the case of `CC[C@H]1[C@@H](O)[C@@H]2[C@H](CC[C@]3(C)[C@@H]([C@H](C)CCNC(=O)NS(=O)(=O)c4c(F)c(F)c(F)c(F)c4F)CC[C@@H]23)[C@@]2(C)CC[C@@H](O)C[C@@H]12` [Example 92], the “Efficacy (%)” value is 325% and the EC50 was in the range of 1 to 10 µM. On to `CC[C@H]1[C@@H](O)[C@@H]2[C@H](CC[C@]3(C)[C@@H]([C@H](C)CCNC(=O)NS(=O)(=O)N(C(C)C)C(C)C)CC[C@@H]23)[C@@]2(C)CC[C@@H](O)C[C@@H]12` [Example 52], for which the “Efficacy (%)” value stood at 281% and the concentration giving a half-maximal response (EC50) was in the range of 0.1 to 1 µM. On to `CC[C@H]1[C@@H](O)[C@@H]2[C@H](CC[C@]3(C)[C@@H]([C@H](C)CCNC(=O)NS(=O)(=O)N4CCCCCC4)CC[C@@H]23)[C@@]2(C)CC[C@@H](O)C[C@@H]12` [Example 47], for which the “Efficacy (%)” value stood at 361% and the EC50 was < 0.1 µM. As to `CC[C@H]1[C@@H](O)[C@@H]2[C@H](CC[C@]3(C)[C@@H]([C@H](C)CCNC(=O)NS(=O)(=O)c4ccc(-c5ccccc5)s4)CC[C@@H]23)[C@@]2(C)CC[C@@H](O)C[C@@H]12` [Example 108], the “Efficacy (%)” value turned out to be 203% and the EC50 lay in the range of 0.1 to 1 µM. `CC[C@H]1[C@@H](O)[C@@H]2[C@H](CC[C@]3(C)[C@@H]([C@H](C)CCNC(=O)NS(=O)(=O)c4ccc(OC)cc4)CC[C@@H]23)[C@@]2(C)CC[C@@H](O)C[C@@H]12` [Example 15]: the “Efficacy (%)” value was 337% and the EC50 was < 0.1 µM. As to `CC[C@H]1[C@@H](O)[C@@H]2[C@H](CC[C@]3(C)[C@@H]([C@H](C)CCNC(=O)NS(=O)(=O)N4C[C@@H](C)O[C@H](C)C4)CC[C@@H]23)[C@@]2(C)CC[C@@H](O)C[C@@H]12` [Example 82], the “Efficacy (%)” value stood at 321% and the EC50 was < 0.1 µM. `CC[C@H]1[C@@H](O)[C@@H]2[C@H](CC[C@]3(C)[C@@H]([C@H](C)CCNC(=O)NS(=O)(=O)c4cccc(Cl)c4)CC[C@@H]23)[C@@]2(C)CC[C@@H](O)C[C@@H]12` [Example 24]: the “Efficacy (%)” value amounted to 421% and the EC50 is < 0.1 µM. With `CC[C@H]1[C@@H](O)[C@@H]2[C@H](CC[C@]3(C)[C@@H]([C@H](C)CCNS(=O)(=O)c4ccc(C(C)(C)C)s4)CC[C@@H]23)[C@@]2(C)CC[C@@H](O)C[C@@H]12` [Example 134], the “Efficacy (%)” value came out at 19%. For `CC[C@H]1[C@@H](O)[C@@H]2[C@H](CC[C@]3(C)[C@@H]([C@H](C)CCNC(=O)NS(=O)(=O)C4CCC(F)(F)CC4)CC[C@@H]23)[C@@]2(C)CC[C@@H](O)C[C@@H]12` [Example 89], the “Efficacy (%)” value is 351% and the EC50 is < 0.1 µM. For `CC[C@H]1[C@@H](O)[C@@H]2[C@H](CC[C@]3(C)[C@@H]([C@H](C)CCNC(=O)NS(N)(=O)=O)CC[C@@H]23)[C@@]2(C)CC[C@@H](O)C[C@@H]12` [Example 124], the “Efficacy (%)” value is recorded as 195% and the EC50 fell in the range of 1 to 10 µM. Regarding `CC[C@H]1[C@@H](O)[C@@H]2[C@H](CC[C@]3(C)[C@@H]([C@H](C)CCN(C)C(=O)NS(=O)(=O)c4ccc(C(C)(C)C)cc4)CC[C@@H]23)[C@@]2(C)CC[C@@H](O)C[C@@H]12` [Example 26], the “Efficacy (%)” value came out at 378% and the concentration giving a half-maximal response (EC50) was in the range of 0.1 to 1 µM.

As usually defined, the EC50 is the concentration at which the effect is half-maximal. Lower therefore signals a more potent agent.
